Results reported in patent publication US7250304B2, “Functional assay of high-density lipoprotein” (The Regents of the University of California, priority 2000, dated 2007).
Like-named read-outs stand apart in the source and are kept apart here.

Key:
HAEC monolayers = test: Monocyte adhesion assay; type: cell-based, human; conditions: LDL 1 mg/ml incubated with apo A-I 100 μg/ml 2 hrs, re-isolated
Method: In brief, HAEC monolayers, in 48-well tissue culture plates were incubated with the desired LDL or phospholipid for 4 hrs at 37° C. as described (Watson et al. (1995) J. Clin. Invest. 96: 2882-2891). After washing, a suspension of human peripheral blood monocytes was added and incubated for 10 min. The loosely adherent monocytes were then washed away, the monolayers were fixed and the number of adherent monocytes counted in 9 high power microscopic fields.
Freshly isolated LDL (250 μg) was incubated with pure 13(S)-HPODE (1.0 μg) in 10% LPDS in M 199 for 4 hrs at 37° C. with gentle mixing. LDL was re-isolated by centrifugation and was incubated with monolayers of human aortic endothelial cells. […] The endothelial monolayer was washed after each time point and a monocyte suspension was added, incubated, washed, and the number of adherent monocytes determined.
Freshly isolated LDL (250 μg) was incubated with 10 units of pure soybean lipoxygenase bound to sepharose beads for 4 hrs at 37° C. with gentle mixing. […] The endothelial monolayer was washed after each time point and monocyte adhesion determined.
Blood samples were collected from patients referred to the cardiac catheterization laboratory at The Center for Health Sciences at the University of California, Los Angeles. […] The HDL-Ox-PAPC mixture was then added to endothelial monolayers and monocyte binding was determined.

paraoxonase [1] = conditions: mice, six hours after injection
[2] = test system: fibroblasts over expressing 15-LO; test: Removal of 13(S)-HPODE by apo A-I from fibroblasts over expressing 15-LO; type: cell-based; conditions: apo A-I 100 μg/ml, 3 hrs
Method: Fibroblasts that were transfected with vector alone or cells that over expressed 15-LO were a generous gift of Drs. Joe Witztum and Peter Reaven. In the present experiments, the fibroblasts were incubated with or without 100 μg/ml apo A-I. Following 3 hrs of incubation at 37° C. with gentle mixing, the culture supernatants were removed, apo A-I was separated by FPLC and the level of hydroperoxides determined in lipid extracts of the culture supernatants and in lipid extracts of apo A-I.

[3] = test system: human artery wall cell cocultures; test: Monocyte chemotaxis assay on coculture conditioned medium; type: cell-based
Method: (§1) The wells of the microtiter plates were treated with 0.1% gelatin at 37° C. overnight. HASMC were added at a confluent density of 1×10^5 cells/cm^2. Cells were cultured for 2 d at which time they had covered the entire surface of the well and had produced a substantial amount of extracellular matrix. HAEC were subsequently added at 2×10^5 cells/cm^2 and were allowed to grow forming a complete monolayer of confluent HAEC in 2 d. In all experiments, HAEC and autologous HASMC (from the same donor) were used at passage levels of four to six.
Monocytes were isolated using a modification of the Recalde method as previously described (Fogelman et al. (1988) J. Lipid Res. 29: 1243-1247) from the blood of normal volunteers after obtaining written consent under a protocol approved by the human research subject protection committee of the University of California, Los Angeles.
(§2) In general, the cocultures were treated with native LDL (250 μg/ml) in the absence or presence of HDL for 8 h. The supernatants were collected and used for determination of lipid hydroperoxide levels. The cocultures were subsequently washed and fresh culture medium 199 (M199) without any additions was added and incubated for an additional 8 hrs. This allowed the collection of monocyte chemotactic activity released by the cells as a result of stimulation by the oxidized LDL. At the end of incubation, the supernatants were collected from cocultures, diluted 40-fold, and assayed for monocyte chemotactic activity. Briefly, the supernatant was added to a standard Neuroprobe chamber (NeuroProbe, Cabin John, Md.), with monocytes added to the top. The chamber was incubated for 60 min at 37° C. After the incubation, the chamber was disassembled and the nonmigrated monocytes were wiped off. The membrane was then air dried and fixed with 1% glutaraldehyde and stained with 0.1% Crystal Violet dye. The number of migrated monocytes was determined microscopically and expressed as the mean±SD of 12 standardized high power fields counted in quadruple wells.

paraoxonase [4] = conditions: humans, six hours after the infusion vs two hours before
Method: After obtaining written informed consent and with IRB approval from St Bartholomew's and the Royal London School of Medicine and Dentistry, apo A-I/phosphotidylcholine discs were infused at a dose of 40 mg apo A-I /kg of body weight over four hours using the materials and protocol described by Nanjee et al (Nanjee et al. (1999) Arterioscler. Thromb. Vascul. Biol. 19: 979-989; Nanjee et al. (1996) Arteroscler. Thromb. Vascul. Biol. 16: 1203-1214) into six healthy male subjects. […] Plasma was prepared 2 hrs before and 6 hrs following the infusion, was cryopreserved as described (Havel et al. (1955) J. Clin. Invest. 43: 1345-1353) and LDL was isolated by FPLC in the authors' lab in Los Angeles before the experiments. LDL islated from plasma according to this protocol functions in a manner that is indistinguishable from freshly isolated LDL in vitro and in vivo (Rumsey et al. (1994) J. Lipid Res. 35: 1592-1598).
Paraoxonase (PON) activity was measured as previously described (Gan et al. (1991) Drug Metab. Dispos. 19: 100-106). Statistical significance was determined by model 1 ANOVA. […] Significance is defined as p<0.05.

[5] = test system: human artery wall cell cocultures; test: LDL oxidation by human artery wall cell cocultures (lipid hydroperoxides); type: cell-based
Method: as §1, §2
Statistical significance was determined by model 1 ANOVA. […] Significance is defined as p<0.05.
Human artery wall cocultures were preincubated with ETYA at a concentration of 10^−8 mol/L or with cinnamyl-3,4-dihydroxy-α-cyanocynamate (CDC, from Biomol) at a concentration of 10^−8 mol/L in M199 containing 10% LPDS for 30 min. The cocultures were then washed and LDL was added at 250 μg/ml and incubated for 8 hrs.

humans = test: Infusion of apo A-I into humans, LDL isolated and tested on human artery wall cocultures; type: in vivo

“apo A-I: Human apo A-I from Sigma, major apolipoprotein of HDL; infused into humans as apo A-I/phosphatidylcholine discs” was tested, and the “monocyte adherence induced by LDL after A-I” value (HAEC monolayers) was “did not stimulate monocyte adherence”, the “PON activity in plasma and HDL, increase” value (paraoxonase [1]) was “approximately 20%” and the “13-HPODE equivalents in lipid extracts of apo A-I, cells over expressing LO vs control cells” value [2] was 5.1 fold. For the same substance, the “LDL-induced monocyte chemotaxis in pretreated cocultures” value ([3]; cocultures incubated 8 hrs with agent, agent removed before LDL) was “monocyte chemotaxis was prevented”, the “LDL-induced monocyte chemotactic activity of LDL pre-incubated with the agent” value ([3]; human LDL incubated with agent, re-isolated, then cocultures) was “prevented LDL-induced monocyte chemotaxis” and the “PON activity in plasma and HDL, increase” value (paraoxonase [4]) was “approximately 20%”. The “oxidation by artery wall cells of mouse LDL after apo A-I treatment” value ([5]; LDL from C57BL/6 and C3H/HeJ mice on chow, incubated in vitro with human apo A-I 100 μg/ml) was “rendered resistant to oxidation”, the “protection of LDL against oxidation on co-incubation” value ([5]; apo A-I 50 μg/ml co-incubated with cocultures and LDL 250 μg/ml) was “did not protect the LDL against oxidation” and the “ability of pretreated artery wall cocultures to oxidize LDL” value ([5]; cocultures incubated 8 hrs with agent, agent removed before LDL 250 μg/ml) was “not able to oxidize the LDL”. For the same substance, the “oxidation by artery wall cells of LDL pre-incubated with the agent” value ([5]; human LDL incubated with agent, re-isolated, then cocultures 8 hrs) was “rendered the LDL resistant to oxidation”, the “resistance of human LDL to oxidation by artery wall cells after infusion” value (humans; apo A-I/phosphatidylcholine discs 40 mg apo A-I/kg over 4 hrs, six hours after vs two hours before, six out of six subjects) was “much more resistant to oxidation” and the “time after infusion at which LDL was rendered resistant to oxidation” value (humans; humans) was at most 6 h.
